Laboratory results taken from US11497751B2, “Modulators of Rho-associated protein kinase” (Redx Pharma PLC, priority 2018, dated 2022).

biological target: T1, N-terminal 6His-tagged ROCK2 catalytic domain 11-552 (Homo sapiens, UniProt O75116); assay: ROCK2 binding activity: ROCK2 inhibition, ADP-Glo Kinase Assay; format: biochemical; conditions: 1.25 nM ROCK2, 100 μM long S6 peptide, 20 μM ATP; 1 hour pre-incubation; read-out: ADP-Glo kinase activity assay ROCK2 Category
T1 construct: N-terminal 6His-tagged ROCK2 catalytic domain 11-552; 6His (N); purchased Dundee University, UK; host or cells: baculovirus expression system
Procedure, shortened: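 1.25 nM baculovirus-expressed ROCK2 pre-incubated 1 h with compound (1% DMSO), then 100 μM long S6 peptide and 20 μM ATP added for 1 h; 50 mM HEPES pH 7.5, 10 mM Mg acetate, 1 mM DTT. ADP-Glo luminescence; IC50 from four-parameter logistic fit.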

T1 sequence (O75116 11-552): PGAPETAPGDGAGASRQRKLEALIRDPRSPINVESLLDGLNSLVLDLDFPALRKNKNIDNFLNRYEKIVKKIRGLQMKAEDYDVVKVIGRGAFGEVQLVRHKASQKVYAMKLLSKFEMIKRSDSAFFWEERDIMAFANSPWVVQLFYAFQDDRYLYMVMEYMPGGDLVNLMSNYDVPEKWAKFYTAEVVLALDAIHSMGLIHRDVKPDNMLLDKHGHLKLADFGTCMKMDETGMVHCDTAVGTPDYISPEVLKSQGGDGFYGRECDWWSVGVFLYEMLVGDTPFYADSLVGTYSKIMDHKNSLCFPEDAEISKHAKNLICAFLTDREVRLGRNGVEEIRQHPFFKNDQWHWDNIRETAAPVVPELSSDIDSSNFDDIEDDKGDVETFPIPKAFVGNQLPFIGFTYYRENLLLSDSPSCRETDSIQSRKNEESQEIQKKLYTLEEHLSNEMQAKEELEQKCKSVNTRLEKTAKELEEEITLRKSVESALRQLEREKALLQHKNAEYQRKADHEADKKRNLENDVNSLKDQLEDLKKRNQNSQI

Structure (SMILES) | IC50
Cn1nc(-c2ccc(C(=O)NCC(F)(F)F)cc2)nc1Nc1ccc2[nH]ncc2c1C1CC1 [Example 343, 4-[5-[(4-cyclopropyl-1H-indazol-5-yl)amino]-1-methyl-1,2,4-triazol-3-yl]-N-(2,2,2-trifluoroethyl)benzamide] | < 300 nM
Cn1nc(-c2ccc(C(=O)NC3CC3)cc2)nc1Nc1ccc2[nH]ncc2c1C1CC1 [Example 344, N-Cyclopropyl-4-[5-[(4-cyclopropyl-1H-indazol-5-yl)amino]-1-methyl-1,2,4-triazol-3-yl]benzamide] | < 300 nM
CCNC(=O)c1ccc(-c2nc(Nc3ccc4[nH]ncc4c3Cl)n(C)n2)cc1C(F)(F)F [Example 345] | 3000 to 10000 nM
CCNC(=O)c1ccc(-c2nc(Nc3ccc4[nH]ncc4c3Cl)n(C)n2)cc1C [Example 346] | < 300 nM
CC(C)NC(=O)COc1ccc(-c2nc(Nc3ccc4[nH]ncc4c3Cl)n(C)n2)cc1C(F)(F)F [Example 348] | < 300 nM
CC(C)NC(=O)COc1ccc(-c2nc(Nc3ccc4[nH]ncc4c3Cl)n(C)n2)cc1C#N [Example 349] | < 300 nM
Cc1cc(-c2nc(Nc3ccc4[nH]ncc4c3Cl)n(C)n2)ccc1OCC(=O)NC(C)C [Example 350] | < 300 nM
CC(C)NC(=O)COc1ccc(-c2nc(Nc3ccc4[nH]ncc4c3Cl)n(C)n2)c(C#N)c1 [Example 351] | < 300 nM
CC(C)NC(=O)COc1ccc(-c2nc(Nc3ccc4[nH]ncc4c3Cl)n(C)n2)c(Cl)c1 [Example 352] | < 300 nM
COc1cc(OCC(=O)NC(C)C)ccc1-c1nc(Nc2ccc3[nH]ncc3c2Cl)n(C)n1 [Example 353] | < 300 nM
Cc1cc(OCC(=O)NC(C)C)ccc1-c1nc(Nc2ccc3[nH]ncc3c2Cl)n(C)n1 [Example 354] | < 300 nM
CC(C)NC(=O)COc1ccc(-c2nc(Nc3ccc4[nH]ncc4c3Cl)n(C)n2)c(F)c1 [Example 355] | < 300 nM
CCNC(=O)c1ccc(-c2nc(Nc3ccc4[nH]ncc4c3Cl)n(C)n2)cc1C#N [Example 358] | < 300 nM
CCNC(=O)c1cc(F)c(-c2nc(Nc3ccc4[nH]ncc4c3Cl)n(C)n2)c(F)c1 [Example 359] | 300 to 3000 nM
CCNC(=O)c1cc(F)c(-c2nc(Nc3ccc4[nH]ncc4c3Cl)n(C)n2)cc1F [Example 360] | < 300 nM
CCNC(=O)c1c(F)cc(-c2nc(Nc3ccc4[nH]ncc4c3Cl)n(C)n2)cc1F [Example 361] | 300 to 3000 nM
CC(C)NC(=O)COc1ccc(-c2nc(Nc3ccc4[nH]ncc4c3Cl)n(C)n2)c(F)c1F [Example 362] | < 300 nM
COc1cc(-c2nc(Nc3ccc4[nH]ncc4c3Cl)n(C)n2)ccc1C(=O)NC1CCN(CC(F)(F)F)C1 (stereo not shown) [Example 363] | < 300 nM
Cn1nc(-c2ccc3c(c2)CCNC3=O)nc1Nc1ccc2[nH]ncc2c1Cl [Example 364] | < 300 nM
COc1cc(-c2nc(Nc3ccc4[nH]ncc4c3Cl)n(C)n2)ccc1C(=O)NC1CNCC1(F)F (stereo not shown) [Example 365] | < 300 nM
Cc1cc(-c2nc(Nc3ccc4[nH]ncc4c3Cl)n(C)n2)ccc1C(=O)NCC(F)(F)F [Example 366] | < 300 nM
CN1CCc2cc(-c3nc(Nc4ccc5[nH]ncc5c4Cl)n(C)n3)ccc2C1 [Example 367] | 3000 to 10000 nM
CC(C)NC(=O)COc1c(F)cc(-c2nc(Nc3ccc4[nH]ncc4c3Cl)n(C)n2)cc1F [Example 368] | < 300 nM
CC(C)NC(=O)COc1cc(F)c(-c2nc(Nc3ccc4[nH]ncc4c3Cl)n(C)n2)cc1F [Example 369] | < 300 nM
CCNC(=O)c1ccc(-c2nc(Nc3ccc4[nH]ncc4c3Cl)n(C)n2)cn1 [Example 370] | < 300 nM
Cn1nc(-c2ccc3c(c2)CCN(C(=O)C(C)(C)C)C3)nc1Nc1ccc2[nH]ncc2c1Cl [Example 371] | < 300 nM

Structure (SMILES) | IC50
Cn1nc(-c2ccc3c(c2)CCN(CC(F)(F)F)C3)nc1Nc1ccc2[nH]ncc2c1Cl [Example 372] | < 300 nM
CCNC(=O)c1ccc(-c2nc(Nc3ccc4[nH]ncc4c3Cl)n(C)n2)c2cccnc12 [Example 373] | 300 to 3000 nM
Cn1nc(-c2ccc(CNS(=O)(=O)c3cccc(Cl)c3)cc2)nc1Nc1ccc2[nH]ncc2c1Cl [Example 374] | < 300 nM
COC(=O)c1ccc(-c2nc(Nc3ccc4[nH]ncc4c3C3CC3)n(C)n2)cc1OC [Example 375] | < 300 nM
COc1cc(-c2nc(Nc3ccc4[nH]ncc4c3C3CC3)n(C)n2)ccc1C(=O)NC1CCN(CC(F)(F)F)C1 (stereo not shown) [Example 376] | < 300 nM
Cn1nc(-c2ccc3c(c2)CCNC3=O)nc1Nc1ccc2[nH]ncc2c1C1CC1 [Example 377] | < 300 nM
Cn1nc(-c2ccc(C(=O)NCC(F)(F)F)nc2)nc1Nc1ccc2[nH]ncc2c1C1CC1 [Example 378] | < 300 nM
COc1cc(-c2nc(Nc3ccc4[nH]ncc4c3C3CC3)n(C)n2)cnc1C(=O)NC1CC1 [Example 379] | 300 to 3000 nM
Cn1nc(-c2ccc(C(=O)NC3CC3)c(F)c2)nc1Nc1ccc2[nH]ncc2c1C1CC1 [Example 380] | < 300 nM
Cn1nc(-c2ccc3c(c2)COC3=O)nc1Nc1ccc2[nH]ncc2c1C1CC1 [Example 381] | < 300 nM
COc1cc(-c2nc(Nc3ccc4[nH]ncc4c3C3CC3)n(C)n2)ccc1C(=O)NC1CC1 [Example 383] | < 300 nM
Cn1nc(-c2ccc(C(N)C(F)(F)F)cc2)nc1Nc1ccc2[nH]ncc2c1C1CC1 (stereo not shown) [Example 384] | 300 to 3000 nM
Cn1nc(-c2ccc(CNS(C)(=O)=O)cc2)nc1Nc1ccc2[nH]ncc2c1C1CC1 [Example 385] | < 300 nM
CCNC(c1ccc(-c2nc(Nc3ccc4[nH]ncc4c3C3CC3)n(C)n2)cc1)C(F)(F)F (stereo not shown) [Example 386] | 300 to 3000 nM
CCNC(=O)c1ccc(-c2nc(Nc3ccc4[nH]ncc4c3C3CC3)n(C)n2)cc1F [Example 387] | < 300 nM
CCNC(c1ccc(-c2nc(Nc3ccc4[nH]ncc4c3C3CC3)n(C)n2)cc1)C(F)F (stereo not shown) [Example 388] | 300 to 3000 nM
Cn1nc(-c2ccc3c(c2)CNCC3)nc1Nc1ccc2[nH]ncc2c1C1CC1 [Example 389] | 3000 to 10000 nM
Cn1nc(-c2ccc(-c3ccccn3)cc2)nc1Nc1ccc2[nH]ncc2c1C1CC1 [Example 390] | < 300 nM
CCC(=O)N1CCc2cc(-c3nc(Nc4ccc5[nH]ncc5c4C4CC4)n(C)n3)ccc2C1 [Example 391] | < 300 nM
Cn1nc(-c2ccncc2)nc1Nc1ccc2[nH]ncc2c1C1CC1 [Example 392] | 300 to 3000 nM
CC(C)NC(=O)COc1ccc(-c2nc(Nc3ccc4[nH]ncc4c3)n(C)n2)cc1C(F)(F)F [Example 397] | < 300 nM
CN1CCc2cc(-c3nc(Nc4ccc5[nH]ncc5c4)n(C)n3)ccc2C1 [Example 414] | 3000 to 10000 nM
CC(C)NC(=O)COc1c(F)cc(-c2nc(Nc3ccc4[nH]ncc4c3)n(C)n2)cc1F [Example 415] | < 300 nM
CC(C)NC(=O)COc1cc(F)c(-c2nc(Nc3ccc4[nH]ncc4c3)n(C)n2)cc1F [Example 416] | < 300 nM
Cc1cc(-c2nc(Nc3ccc4[nH]ncc4c3C)n(C)n2)ccc1C(=O)NCC(F)(F)F [Example 417] | < 300 nM

Next, values leading:

IC50 | Structure (SMILES)
< 300 nM | CCNC(=O)c1ccc(-c2nc(Nc3ccc4[nH]ncc4c3Cl)n(C)n2)c(OC)c1 [Example 347]
< 300 nM | CCNC(=O)c1ccc(-c2nc(Nc3ccc4[nH]ncc4c3Cl)n(C)n2)c(F)c1 [Example 356]
< 300 nM | CCNC(=O)c1ccc(-c2nc(Nc3ccc4[nH]ncc4c3Cl)n(C)n2)c(C(F)(F)F)c1 [Example 357]
300 to 3000 nM | CCNC(=O)c1ccc(-c2nc(Nc3ccc4[nH]ncc4c3)n(C)n2)cc1C [Example 394]
< 300 nM | CCNC(=O)c1ccc(-c2nc(Nc3ccc4[nH]ncc4c3)n(C)n2)c(OC)c1 [Example 395]
< 300 nM | Cc1cc(-c2nc(Nc3ccc4[nH]ncc4c3)n(C)n2)ccc1OCC(=O)NC(C)C [Example 396]
3000 to 10000 nM | CCNC(=O)c1ccc(-c2nc(Nc3ccc4[nH]ncc4c3)n(C)n2)cc1C(F)(F)F [Example 398]
< 300 nM | CCNC(=O)c1ccc(-c2nc(Nc3ccc4[nH]ncc4c3)n(C)n2)c(C)c1 [Example 399]
< 300 nM | CC(C)NC(=O)COc1ccc(-c2nc(Nc3ccc4[nH]ncc4c3)n(C)n2)cc1C#N [Example 400]
< 300 nM | Cc1cc(OCC(=O)NC(C)C)ccc1-c1nc(Nc2ccc3[nH]ncc3c2)n(C)n1 [Example 401]
< 300 nM | CC(C)NC(=O)COc1ccc(-c2nc(Nc3ccc4[nH]ncc4c3)n(C)n2)c(C(F)(F)F)c1 [Example 402]
< 300 nM | CC(C)NC(=O)COc1ccc(-c2nc(Nc3ccc4[nH]ncc4c3)n(C)n2)c(C#N)c1 [Example 403]
< 300 nM | COc1cc(OCC(=O)NC(C)C)ccc1-c1nc(Nc2ccc3[nH]ncc3c2)n(C)n1 [Example 404]
< 300 nM | CC(C)NC(=O)COc1ccc(-c2nc(Nc3ccc4[nH]ncc4c3)n(C)n2)c(F)c1 [Example 405]
< 300 nM | CCNC(=O)c1ccc(-c2nc(Nc3ccc4[nH]ncc4c3)n(C)n2)c(F)c1 [Example 406]
< 300 nM | CC(C)NC(=O)COc1ccc(-c2nc(Nc3ccc4[nH]ncc4c3)n(C)n2)c(Cl)c1 [Example 407]
300 to 3000 nM | CCNC(=O)c1ccc(-c2nc(Nc3ccc4[nH]ncc4c3)n(C)n2)c(C(F)(F)F)c1 [Example 408]
< 300 nM | CCNC(=O)c1cc(F)c(-c2nc(Nc3ccc4[nH]ncc4c3)n(C)n2)cc1F [Example 409]
300 to 3000 nM | CCNC(=O)c1c(F)cc(-c2nc(Nc3ccc4[nH]ncc4c3)n(C)n2)cc1F [Example 410]
< 300 nM | CC(C)NC(=O)COc1ccc(-c2nc(Nc3ccc4[nH]ncc4c3)n(C)n2)c(F)c1F [Example 411]
< 300 nM | CCNC(=O)c1ccc(-c2nc(Nc3ccc4[nH]ncc4c3)n(C)n2)cc1C#N [Example 412]
< 300 nM | CCNC(=O)c1cc(F)c(-c2nc(Nc3ccc4[nH]ncc4c3)n(C)n2)c(F)c1 [Example 413]
